The text below walks through data of publication PMC11359702, “Synthesis and Biochemical Evaluation of Ethanoanthracenes and Related Compounds: Antiproliferative and Pro-Apoptotic Effects in Chronic Lymphocytic Leukemia (CLL)” (Pharmaceuticals, 2024).

For one series, the system named is CLL patients. The arrangement: method as in PMID 23291630, PMID 31160589. To be noted: CLL patients ref 28,29; cited from earlier work.
Series [1] deals with HG-3 cells. Put plainly: LDH cytotoxicity assay (CytoTox 96). It counts as cell-based. To be noted: HG-3, 10 µM, 24 h, lysis solution = 100%. The source says:
(§1) The lactate dehydrogenase (LDH) assay is used to assess the membrane integrity of cells as a function of the cytoplasmic LDH released. The loss of cell membrane integrity (due to cytotoxic insult) is detectable through LDH release into the cell growth medium. The assay is initiated via the reduction in cellular co-factor NAD^+ to NADH catalyzed via the LDH enzyme. Newly formed NADH catalyzes the acidic reduction in iodonitrotetrazolium chloride (INT) to the highly colored formazan (red) (mediated via the diaphorase enzyme). […] At the 10-µM treatment concentration, mild to moderate cytotoxicity (19–47%) was observed. […] Cytotoxicity remained low to mild at 1 µM (4–18%) with 23a displaying the lowest LDH release (4%).
(§2) Following the treatment of the HG-3 and PGA-1 cells at 10 µM for 24 hr, the amount of LDH released was determined using an LDH assay kit from Promega (G1780). Cell lysis solution = 100% cell lysis and LDH release). Data are presented as % cell death at a concentration of 10 µM. Cells were treated with ethanoanthracene compounds 20a, 20f, 23a and 25n (1 µM and 10 µM) for 24 h. Values are shown as the mean of three independent experiments.
(§3) The cytotoxicity of the selected compounds 20a, 20f, 23a and 25n was determined using the CytoTox 96 non-radioactive cytotoxicity assay (Promega Corporation; 2800 Woods Hollow Road, Madison, WI, USA). CLL cells HG-3 and PGA-1 were incubated for 24 h and then treated with the selected compounds 20a, 20f, 23a and 25n at 10-µM and 1-µM concentrations, following the protocol outlined above in the cell viability assay. After 24 h, the lysis solution (10×) (20 µL) was added, and the cells were incubated for a further 1 h to ensure complete cell death. Supernatant (50 µL) was removed from each well and transferred to a clean 96-well plate. “Substrate mix” (50 µL) was added, and the plate was stored in the dark at 20 °C for 30 min. “Stop solution” (50 µL) was added to each well, and the absorbance at 490 nm was recorded using a Dynatech MR5000 plate reader; the % cell death was determined relative to the control cell lysis solution.

The subject of series [2] is PGA-1 cells. Briefly: LDH cytotoxicity assay (CytoTox 96). It counts as cell-based. As to conditions: PGA-1, 10 µM, 24 h.
Description: as §1, §2, §3

The subject of series [3] is HG-3 cells. Briefly: Annexin V/PI apoptosis assay (FACS). The format is cell-based, human. The method, then: (§4) The pro-apoptotic effects of selected nitrovinylethanoanthracene compounds 20a and 20f and anthracene chalcones 23a and 25n in HG-3 cells and PGA-1 cells was then investigated using FITC (fluorescein isothiocyanate), Annexin V/PI (propidium iodide) and FACS (fluorescence-activated cell sorting) analysis to characterize the mode of cellular death induced. Apoptosis was assessed as % total apoptosis (total of early (Q3) and late (Q2) apoptosis).
(§5) CLL cells PGA-1 and HG-3 (1 × 10^6 cells/mL) were treated at 37 °C with either the vehicle (1% (v/v) DMSO) or the ethanoanthracene compounds 20a, 20f, 23a and 25n (10 µM, 5 µM and 1 µM) for 48 h, following the protocol previously described. The cells were then harvested via centrifugation at 400× g in a temperature-controlled Sorvall centrifuge. The cells were rinsed with Ca^2+ Annexin-V-binding buffer (0.1 M HEPES, pH 7.4; 0.14 M NaCl; 25 mM CaCl2, 0.5 mL). The samples were resuspended in FITC Annexin V (diluted 1:33 in Ca^2+ Annexin V-binding buffer, 50 µL) and incubated for 10 min (on ice and protected from light). The samples were washed with Annexin-V-binding buffer and resuspended in a PI solution (0.5 µg/mL, 500 µL) and analyzed within 1 h using a BD Accuri C6 flow cytometer counting 10,000 cells using the FlowJo software Version 10 (FlowJo LLC, Ashland, OR, USA).

Series [4] relates to PGA-1 cells. Briefly: Annexin V/PI apoptosis assay (FACS). The format is cell-based, human. On the procedure:
as §4, §5

Series [5] relates to PGA-1 cells. Put plainly: alamarBlue cell viability assay. As to conditions: Homo sapiens, 24 h. Background: The colour change of resazurin is a common sign of viable cells or microbes.
Series [6] concerns HG-3 cells. Briefly: alamarBlue viability after pan-caspase inhibitor Z-VAD-FMK pre-treatment. The format is cell-based, human. The text has this: Caspases (cysteine-aspartic proteases) are a family of aspartic acid residue-specific regulatory cysteine proteases that play an essential role in key cellular homeostatic processes such as inflammation and programmed cell death through the induction of apoptosis. To assess whether the biological activity of both major ethanoanthracene classes (nitrostyrene and chalcone-based) is caspase-dependent, compounds 20a and 23a (representing Series 1 and Series 4, respectively) (Figure 13) were selected for evaluation at treatment concentrations of 10 µM and 1 µM across both CLL cell lines using a caspase assay protocol. In HG-3 cells, pre-treatment with pan-caspase inhibitor (CI) Z-VAD-FMK [85] […] Little difference was found between cell viability responses (with or without the caspase inhibitor) at both 10-µM and 1-µM concentrations for compound 20a.
Compounds 20a and 23a (representing Series 1 and Series 4, respectively) were selected for evaluation at two treatment concentrations, 10 µM and 1 µM, across both HG-3 and PGA-1 CLL cells. […] The output was statistically analyzed using a one-way ANOVA with a Bonferroni multiple-comparison test. […]

The subject of series [7] is HG-3 cells. Briefly: alamarBlue cell viability assay. As to conditions: Homo sapiens, HG-3, 24 h.
Series [8] relates to HG-3 and PGA-1 cell lines. Put plainly: alamarBlue cell viability assay, mean of both CLL cell lines. It counts as cell-based, human. To be noted: Homo sapiens, CLL cell; mean of HG-3 and PGA-1.
Series [9] relates to healthy-donor peripheral blood mononuclear cells (PBMCs). Briefly: Annexin V/PI assay in donor PBMCs. To be noted: 0.34 and 0.68 µM, 48 h. The format is cell-based. The source says: Whole blood samples from healthy donors (×5) were isolated, prepared and treated following the protocol previously described. The percentage of apoptosis observed in the treatment of isolated donor PBMCs with nitrovinylethanoanthracene 20a is concentration-dependent (Figure 11A). […] For ethanoanthracene 23a, the percentage of total apoptosis observed is illustrated in Figure 11B. […] The percentage of total apoptosis observed in the treatment of isolated donor PBMCs with the anthracene–chalcone 25n (normalized against vehicle 0.5% v/v DMSO) is illustrated in Figure 11C, and the dose-response behavior was also concentration-dependent, with compound 25n moderately toxic to healthy-donor PBMCs when treated at a 5.00 µM concentration (39%).
The human peripheral blood mononuclear cells (PBMCs) were generated as follows: peripheral blood was obtained from healthy donors (n = 2) after informed consent was received. The blood was then placed into a 50-mL falcon tube and diluted with an equal volume of phosphate-buffered saline (PBS). PBMCs were isolated using density-gradient centrifugation with LymphoPrep, as described previously. The cells were resuspended in RPMI media containing 10% FBS and 1% penicillin/streptomycin (P/S). The cells were counted using a haemocytometer and seeded into 96 well plates at a density of 1 × 10^5 cells/well (200 µL), and they were incubated at 37 °C for 1 h prior to compound treatment. The Annexin V/PI assay was used as a preliminary method of assessing the selective toxicity of the above compounds when compared with a previous alamarBlue cell viability assay in CLL cell lines. The assay was carried out as described above for the Annexin V/PI assay previously described above, and it was completed in triplicate on two independent days. Approval for this study was obtained from the School of Pharmacy and Pharmaceutical Sciences Trinity College Dublin Research Ethics Committee (2020-06-01-MS).

Series [10] concerns chemosensitive MUTU-1 cell line. The arrangement: method as in PMID 31963567. As to conditions: chemosensitive MUTU-1 cell line ref 43; cited from earlier work.
The test system of series [11] is chemoresistant DG-75 cell line. The arrangement: method as in PMID 31963567. As to conditions: chemoresistant DG-75 cell line ref 43; cited from earlier work.
In series [12] the test system is cancer cells isolated from CLL patients. To be noted: cancer cells isolated from CLL patients ref 39; cited from earlier work.

Structures are written as SMILES. Where “and” joins values, the source holds several entries; their conditions need not be identical. Equal values may be shown once.

On to `CC1(C)CCC(CN2CCN(c3ccc(C(=O)NS(=O)(=O)c4ccc(NCC5CCOCC5)c([N+](=O)[O-])c4)c(Oc4cnc5[nH]ccc5c4)c3)CC2)=C(c2ccc(Cl)cc2)C1` [Venetoclax], for which the overall response in the series with CLL patients is recorded as 80%.

The IC50 is the point on the concentration scale where inhibition reaches its midpoint. The viability is a read-out of living cells in per cent, often relative to untreated cells. As to `O=C1C2C3c4ccccc4C(C=C[N+](=O)[O-])(c4ccccc43)C2C(=O)N1c1ccccc1` (stereo not drawn) [Compound 20a], the “LDH release (cytotoxicity, % cell death)” value in the series on HG-3 cells [1] is on record as 33%; in the series on PGA-1 cells [2] it was 9%. The “total apoptosis (early Q3 + late Q2)” value with HG-3 cells [3] (HG-3, 1 µM) was 82%; with HG-3 cells [3] (HG-3, 10 µM) it was 82–95% and 95%; in the series on PGA-1 cells [4] (PGA-1, 1 µM), 83%; in the series with PGA-1 cells [4] (PGA-1, 10 µM) it was 87–97% and 97%. Besides, the IC50 was 610 nM in the series on PGA-1 cells [5] (read-out: PGA-1 IC50); 480 nM in the series with HG-3 cells [7] (read-out: HG-3 IC50); 550 nM in series [8]; 210 nM in series [10]; 710 nM in series [11]. Besides, the viability at 10 µM in the series with PGA-1 cells [5] (read-out: cell viability) was 11%; with HG-3 cells [7] (read-out: cell viability, HG-3, 10 µM, 24 h, vehicle = 100%), 14 to 43%. The “decrease in cell viability after Z-VAD-FMK pre-treatment” value with HG-3 cells [6] (HG-3, 1 µM compound) is listed as 2%; in the series with HG-3 cells [6] (HG-3, 10 µM compound) it was 10%. In [9], the “total apoptosis (toxicity) in healthy-donor PBMCs” value is 10–35%.

Consider `Nc1nc(F)nc2c1ncn2[C@@H]1O[C@H](COP(=O)(O)O)[C@@H](O)[C@@H]1O` [fludarabine phosphate], for which, in series [12], the increase in apoptosis is reported as 24.6%.
